Data published in patent US8445719B2, “Method of stabilizing heme protein and storage solution therefor” (priority 2007, dated 2013).

Legend:
[1] = target: Hemoglobin + feces sample (Homo sapiens, UniProt P68871+P69905); assay: Hemoglobin stabilization effect in storage solution, hemoglobin coexisting with feces sample (residual ratio by immunological measurement); conditions: for Residual ratio, Hemoglobin + feces sample: stored at 37° C. for 20 hours, pH 7.0 HEPES storage solution; for Stabilizing effect (in words): 0.001-0.050 mol/L
Hemoglobin = Hemoglobin (Homo sapiens, UniProt P68871+P69905); assay: Hemoglobin stabilization effect in storage solution, hemoglobin only (residual ratio by immunological measurement); conditions: for Residual ratio, Hemoglobin: stored at 37° C. for 20 hours, pH 7.0 HEPES storage solution; for Stabilizing effect (in words): 0.001-0.050 mol/L
fecal human hemoglobin = fecal human hemoglobin (Homo sapiens, UniProt P68871+P69905); conditions: single use of EDTA
[2] = test solution in which hemoglobin and feces coexist, 37° C., 20 hours
[3] = test solution of hemoglobin only, 37° C., 20 hours

Hemoglobin, sequence (P69905 2-142 limits assumed): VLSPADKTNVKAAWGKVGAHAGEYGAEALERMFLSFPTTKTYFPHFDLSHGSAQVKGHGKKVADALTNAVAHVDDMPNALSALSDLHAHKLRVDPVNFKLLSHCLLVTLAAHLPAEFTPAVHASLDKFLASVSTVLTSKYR
Hemoglobin, sequence (P68871 2-147 limits assumed): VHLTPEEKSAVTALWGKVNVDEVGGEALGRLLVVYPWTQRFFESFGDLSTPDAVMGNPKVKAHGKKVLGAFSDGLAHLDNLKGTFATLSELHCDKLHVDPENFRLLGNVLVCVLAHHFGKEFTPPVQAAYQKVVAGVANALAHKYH
Hemoglobin + feces sample, sequence (P69905 2-142 limits assumed): as the sequence (P69905 2-142 limits assumed) above
Hemoglobin + feces sample, sequence (P68871 2-147 limits assumed): as the sequence (P68871 2-147 limits assumed) above
fecal human hemoglobin, sequence (P69905 2-142 limits assumed): as the sequence (P69905 2-142 limits assumed) above
fecal human hemoglobin, sequence (P68871 2-147 limits assumed): as the sequence (P68871 2-147 limits assumed) above

Compound	Residual ratio, Hemoglobin + feces sample ([1]; 0.001 mol/L agent added) [%]	Residual ratio, Hemoglobin + feces sample ([1]; 0.010 mol/L agent added) [%]	Residual ratio, Hemoglobin + feces sample ([1]; 0.050 mol/L agent added) [%]	Stabilizing effect (in words) [1, 2]	Residual ratio, Hemoglobin (Hemoglobin; 0.001 mol/L agent added) [%]	Residual ratio, Hemoglobin (Hemoglobin; 0.010 mol/L agent added) [%]	Residual ratio, Hemoglobin (Hemoglobin; 0.050 mol/L agent added) [%]	Stabilizing effect (in words) (Hemoglobin; [3])	also measured
O=C(O)CN(CCN(CC(=O)O)CC(=O)O)CC(=O)O [EDTA, ethylenediamine-N,N,N′,N′-4 acetic acid]	34.3	35.8	37.1	slightly higher effect to stabilize hemoglobin was observed	79.5	79.8	82.4	slight stabilizing effect was observed	Stabilizing action on fecal human hemoglobin (in words) (fecal human hemoglobin): sufficient stabilizing action on fecal human hemoglobin cannot be expected
O=C(O)CN(CCO)CC(=O)O [HIDA, N-(2-hydroxyethyl) iminodiacetic acid]	26.1	26.4	27.3	any certain stabilizing effect was not observed	80.3	79.3	81.6	slight stabilizing effect was observed	–
O=C([O-])CC(NC(C(=O)[O-])C(O)C(=O)[O-])C(=O)[O-].[Na+].[Na+].[Na+].[Na+] (centres unmarked) [HIDS, tetrasodium 3-hydroxy-2,2′-iminodisuccinate]	28.8	39.2	50.8	–	82.8	84.2	84.1	–	Residual ratio, Hemoglobin + feces sample ([1]; 0.005 mol/L agent added): 32.3%; Residual ratio, Hemoglobin + feces sample ([1]; 0.075 mol/L agent added): 53.9%; Residual ratio, Hemoglobin + feces sample ([1]; 0.100 mol/L agent added): 55.9%; Residual ratio, Hemoglobin + feces sample ([1]; 0.150 mol/L agent added): 57.8%; Residual ratio, Hemoglobin + feces sample ([1]; 0.200 mol/L agent added): 46.3%; Concentration at which the effect to stabilize hemoglobin was remarkable ([1]; 37° C., 20 hours): ≥ 0.050 mol/L; Concentration at which the stabilizing effect is observed [1, 2]: ≥ 0.005 mol/L; Residual ratio, Hemoglobin (Hemoglobin; 0.005 mol/L agent added): 83.9%; Residual ratio, Hemoglobin (Hemoglobin; 0.075 mol/L agent added): 85.2%; Residual ratio, Hemoglobin (Hemoglobin; 0.100 mol/L agent added): 87.8%; Residual ratio, Hemoglobin (Hemoglobin; 0.150 mol/L agent added): 88.2%; Residual ratio, Hemoglobin (Hemoglobin; 0.200 mol/L agent added): 86.2%; Concentration at which a stabilizing effect was observed (Hemoglobin; [3]): ≥ 0.001 mol/L
O=C(O)CNCC(=O)O [IDA, iminodiacetic acid]	28.0	27.3	26.3	any certain stabilizing effect was not observed	82.1	80.9	81.0	slight stabilizing effect was observed	–
